PubChem BioAssay AID1963847 (Molecular Pharmacology Branch, DTP, NCI, 2024)

Tested on: 415267-285-R-J2-PDC complex spheroid viability
Experiment: Anticancer human tumor 415267-285-R-J2-PDC patient-derived breast carcinoma cell line growth inhibition [POLQ]
Settings: for viability, T/C: stronger effect = lower value
Method: Multicellular complex tumor spheroid response to Polymerase (POL) inhibitors (novobiocin, ART-558, RP6685) in combination with a variety of drugs and investigational agents in selected tumor cell lines
The POL inhibitors (novobiocin, ART-558, and RP6685) were evaluated both individually and in combination with standard of care and investigational anticancer small molecules within a complex spheroid model of solid tumors. . Complex spheroids include a stromal component modeled by human endothelial cells (HUVEC) and fibroblasts modeled by human mesenchymal stem cells (MSCs). The concentration ranges selected for each drug and investigational agent were based upon clinically achievable concentrations if the clinical Cmax of the agent was known.
Compounds. The drugs and investigational agents: novobiocin (NSC847541), ART-558 (NSC835418), RP-6685 (NSC848927), peposertib (NSC802822), ceralasertib (NSC780249), elimusertib (NSC800525), camonsertib (NSC841442), AZD-1390 (NSC803789), olaparib (NSC753686), talazoparib (NSC767125), rucaparib (NSC756644), sotorasib (NSC818433), MRTX-1133 (NSC836407), SN-38 (NSC673596), topotecan (NSC609699), epotoside (NSC141540), doxorubicin (NSC123127), gemcitabine (NSC613327), 5-fluorouracil (NSC19893), paclitaxel (NSC125973), vemurafenib (NSC761431), MSA-2 (NSC828583), SN-011 (NSC837082), adavosertib (NSC754352), prexasertib (NSC758257), carboplatin (NSC241240) and oxaliplatin (NSC266046), were obtained from the National Cancer Institute (NCI) Developmental Therapeutics Program Chemical Repository (21). The FDA-approved anticancer drug set is available from the Developmental Therapeutics Program at https://dtp.cancer.gov/organization/dscb/obtaining/. […] The stock solutions were prepared in dimethyl sulfoxide (DMSO, Sigma-Aldrich, St. Louis, MO, cat. D2650), except for the platinum compounds which were prepared in saline (Quality Biological, Gaithersburg, MD, cat. 114-055-101), at 800-fold the tested concentration and stored at -70 degrees C prior to their use. All drugs and investigational agents were tested over a range starting from a high concentration at or near the clinical Cmax and decreasing in half-log increments. If the clinical Cmax for an agent had not been determined, the highest concentration tested was 10 microM, except for SN-38, which was tested at a high concentration of 1 microM.
Cell Culture. All cells were maintained in an incubator at 37 degrees C and 5% CO2 with 95% humidity. The PDC lines were cultured according to standard operating procedures established by the NCI PDMR (https://pdmr.cancer.gov). Table 3 of the manuscript, lists the cell lines along with the number of the three cell types plated to form the mct-spheroids and media for tumor cell growth. After thawing, all PDC lines, except 997537-175-T-J1-PDC and 415267-285-R-J2-PDC, were cultured in Matrigel-coated flasks prepared with a working solution of 1X Ham's F-12 nutrient mix, without supplementation (Thermo Fisher Scientific, cat. 11765054), 100 U/mL penicillin-streptomycin (Thermo Fisher Scientific, cat. 15140122), and 2.5% Matrigel (Corning Inc., Corning, NY, cat. 354248) for the first three passages. The two PDC lines 997537-175-T-J1-PDC and 415267-285-R-J2-PDC were cultured on uncoated flasks. The 857933-349-R-J2-PDC line was cultured in 6C/Colon 1B media containing advanced DMEM/F-12 (Thermo Fisher Scientific, cat. 12634028), 10 mM HEPES (Thermo Fisher Scientific, cat. 15630080), 1X GlutaMAX supplement (Thermo Fisher Scientific, cat. 35050061), 0.1 mg/mL primocin (InvivoGen, San Diego, CA, cat. ant-pm-2), 10% defined fetal bovine serum, heat inactivated (HyClone Laboratories Inc., Logan, UT, cat. SH30070.03HI), 50% L-WRN conditioned media (ATCC, cat. CRL-3276), 1.25 mM N-Acetyl-L-cysteine (Sigma-Aldrich, cat. A9165), 10 mM nicotinamide (Sigma-Aldrich, cat. N0636), 1X B-27 supplement (Thermo Fisher Scientific, cat. 17504044), 1X N-2 supplement (Thermo Fisher Scientific, cat. […]
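Further: spheroids exposed to compounds for one week before readout.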
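Wherever viability, T/C is given: luminescence used as stand-in measure of viable cells; 100% = DMSO vehicle control viability.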

CCc1c2c(nc3ccc(O)cc13)-c1cc3c(c(=O)n1C2)COC(=O)[C@]3(O)CC + Nc1ccc(C#CCN(C(=O)Cc2ncc(C(F)(F)F)cc2C(F)(F)F)c2ccc(F)cc2)nn1 was tested, and the IC50 (curve of first compound, second compound 0.0316 µM) was 3.71 nM, the IC50 (curve of first compound, second compound 0.1 µM) was 4.23 nM and the IC50 (curve of first compound, second compound 0.316 µM) was 3.49 nM. It also gave an IC50 (curve of first compound, second compound 1 µM) of less than 3.16 nM, an IC50 (curve of first compound, second compound 3.16 µM) of less than 3.16 nM and an IC50 (curve of first compound, second compound 10 µM) of less than 3.16 nM. For the same molecule, the viability, T/C (second compound 0.0316 µM, first compound 0.00316 µM) was 56.2%, the viability, T/C (second compound 0.0316 µM, first compound 0.01 µM) was 12.2% and the viability, T/C (second compound 0.0316 µM, first compound 0.0316 µM) was 4.64%. The viability, T/C (second compound 0.0316 µM, first compound 0.1 µM) was 3.13%, the viability, T/C (second compound 0.0316 µM, first compound 0.316 µM) was 1.82% and the viability, T/C (second compound 0.0316 µM, first compound 1 µM) was 1.11%. It also gave a viability, T/C (second compound 0.1 µM, first compound 0.00316 µM) of 63.5%, a viability, T/C (second compound 0.1 µM, first compound 0.01 µM) of 10.5% and a viability, T/C (second compound 0.1 µM, first compound 0.0316 µM) of 4.81%. For the same molecule, the viability, T/C (second compound 0.1 µM, first compound 0.1 µM) was 3.2%, the viability, T/C (second compound 0.1 µM, first compound 0.316 µM) was 2.14% and the viability, T/C (second compound 0.1 µM, first compound 1 µM) was 1.01%. It also gave a viability, T/C (second compound 0.316 µM, first compound 0.00316 µM) of 53.6%, a viability, T/C (second compound 0.316 µM, first compound 0.01 µM) of 11.3% and a viability, T/C (second compound 0.316 µM, first compound 0.0316 µM) of 4.02%. For the same molecule, the viability, T/C (second compound 0.316 µM, first compound 0.1 µM) was 2.64%, the viability, T/C (second compound 0.316 µM, first compound 0.316 µM) was 2.39% and the viability, T/C (second compound 0.316 µM, first compound 1 µM) was 1.12%. For the same molecule, the viability, T/C (second compound 1 µM, first compound 0.00316 µM) was 46.9%, the viability, T/C (second compound 1 µM, first compound 0.01 µM) was 9.28% and the viability, T/C (second compound 1 µM, first compound 0.0316 µM) was 4.2%. For the same molecule, the viability, T/C (second compound 1 µM, first compound 0.1 µM) was 3.14%, the viability, T/C (second compound 1 µM, first compound 0.316 µM) was 2.27% and the viability, T/C (second compound 1 µM, first compound 1 µM) was 0.96%. For the same molecule, the viability, T/C (second compound 3.16 µM, first compound 0.00316 µM) was 42.7%, the viability, T/C (second compound 3.16 µM, first compound 0.01 µM) was 9.28% and the viability, T/C (second compound 3.16 µM, first compound 0.0316 µM) was 5.9%. The viability, T/C (second compound 3.16 µM, first compound 0.1 µM) was 3.54%, the viability, T/C (second compound 3.16 µM, first compound 0.316 µM) was 2.55% and the viability, T/C (second compound 3.16 µM, first compound 1 µM) was 0.98%. The viability, T/C (second compound 10 µM, first compound 0.00316 µM) was 32.5%, the viability, T/C (second compound 10 µM, first compound 0.01 µM) was 9.81% and the viability, T/C (second compound 10 µM, first compound 0.0316 µM) was 4.81%. It also gave a viability, T/C (second compound 10 µM, first compound 0.1 µM) of 2.88%, a viability, T/C (second compound 10 µM, first compound 0.316 µM) of 2.6% and a viability, T/C (second compound 10 µM, first compound 1 µM) of 1.04%.

Nc1ccc(C#CCN(C(=O)Cc2ncc(C(F)(F)F)cc2C(F)(F)F)c2ccc(F)cc2)nn1 was tested, and the viability, T/C (compound 0.0316 µM) was 93.6% [middle of 13 runs], the viability, T/C (compound 0.1 µM) was 101% [middle of 13 runs] and the viability, T/C (compound 0.316 µM) was 101% [middle of 12 runs]. For the same molecule, the viability, T/C (compound 1 µM) was 103% [middle of 13 runs], the viability, T/C (compound 3.16 µM) was 107% [middle of 13 runs] and the viability, T/C (compound 10 µM) was 106% [middle of 13 runs]. It also gave an IC50 (compound alone, run of 01/19/2024) greater than 10000 nM.
